Test results published in patent US10874675B2, “Pteridine dione monocarboxylate transporter inhibitors” (The Scripps Research Institute, priority 2015, dated 2020).

Tests used:
[1] = tested on: Raji (Burkitt's) lymphoma cells; assay: MTT assay for 4-day viability of Raji (Burkitt's) lymphoma cells; format: cell-based; settings: Homo sapiens, 96 h, Raji cells (highly express MCT1), estimated values, read-out: approximate potency (EC50 nM)
Description: Specific Examples of compounds of the invention, with estimated EC50 values determined using an MTT assay for 4-day viability of Raji (Burkitt's) lymphoma cells, a cell line known to highly express MCT1 and to be sensitive to small molecule MCT inhibitors,^4 are shown in Table 3. Assay protocols follow those described in the literature.^4 Other assays that are not described here but that are standard in the field, such as an assay for competitive inhibition of transport of radiolabeled lactic acid, an MCT substrate, may also be useful in establishing mechanism of action of these compounds.

T47D tumor cells = assay: Mouse xenograft experiment using T47D tumor cells; format: in vivo, mice; settings: 30 mg/kg daily
Protocol: (§1) The in vivo effects of a few selected agents have been evaluated in mouse xenograft models and found to be effective. Protocols follow those described in the literature.^4
(§2) Mice were transplanted with cultured tumor cells and after an incubation period (typically 8-12 days), mice were left untreated or were treated daily with a 30 mg/kg dose of the test compound. Tumor volumes were measured with calipers over […] of treatment. Tumors were excised and weighed at the end of treatment. In some experiments the mice were co-treated daily with a 30 mg/kg dose of the test compound and 5 mg/kg of metformin.

[2] = tested on: Raji Burkitt lymphoma cells; assay: Xenograft of tumors derived from Raji Burkitt lymphoma cells in nude mice; format: in vivo; settings: versus vehicle
Protocol: as §1, §2
In a separate experiment, this same compound was used in a study using implanted tumors derived from Raji Burkitt lymphoma cells, implanted into nude mice and treated as before with vehicle, with SR-11431, or with SR-11431 plus metformin.

Row | EC50 [1] [nM] | SMILES | also measured
1 | < 50 | CC(C)Cn1c(=O)n(C)c(=O)c2nc(CCCCCO)c(COc3ccccc3Br)nc21 [Example 11, 7-((2-bromophenoxy)methyl)-6-(5-hydroxypentyl)-1-isobutyl-3-methylpteridine-2,4(1H,3H)-dione] | 
2 | < 50 | CC(C)Cn1c(=O)n(C)c(=O)c2nc(CCCCCO)c(COc3ccc(N)c4ccccc34)nc21 [Example 9, 7-(((4-aminonaphthalen-1-yl)oxy)methyl)-6-(5-hydroxypentyl)-1-isobutyl-3-methylpteridine-2,4(1H,3H)-dione] | 

Further lines, the molecule ahead of its results:

Row | SMILES | EC50 [1] [nM] | also measured
3 | CC(C)Cn1c(=O)n(C)c(=O)c2nc(CCCCCO)c(COc3cccc4cnccc34)nc21 [Example 3, 6-(5-hydroxypentyl)-1-isobutyl-7-((isoquinolin-5-yloxy)methyl)-3-methylpteridine-2,4(1H,3H)-dione] | < 50 | tumor volume (T47D tumor cells; versus vehicle): significant reduction of tumor volume; final tumor mass (T47D tumor cells; versus vehicle treated animals, end of treatment): reduction in final tumor mass; tumor volume over time ([2]; 30 mg/kg daily (co-treatment: plus 5 mg/kg metformin), 30-day time course): Reduction of tumor volume over time; final tumor weight ([2]; end of treatment (day 32)): not significantly changed
4 | CC(C)Cn1c(=O)n(C)c(=O)c2nc(CCCCCO)c(COc3cc(F)ccc3Br)nc21 [Example 24, 7-((2-bromo-5-fluorophenoxy)methyl)-6-(5-hydroxypentyl)-1-isobutyl-3-methylpteridine-2,4(1H,3H)-dione] | ≤ 250 | 
5 | CC(C)Cn1c(=O)n(C)c(=O)c2nc(CCCCCO)c(COc3ccc4ncccc4c3)nc21 [Example 18, 6-(5-hydroxypentyl)-1-isobutyl-3-methyl-7-((quinolin-6-yloxy)methyl)pteridine-2,4(1H,3H)-dione] | ≤ 100 | 
6 | CC(C)Cn1c(=O)n(C)c(=O)c2nc(CCCCCO)c(COc3ccccc3C#N)nc21 [Example 34, 2-((6-(5-hydroxypentyl)-1-isobutyl-3-methyl-2,4-dioxo-1,2,3,4-tetrahydropteridin-7-yl)methoxy)benzonitrile] | ≥ 2000 | 
